Measured values from ChEMBL document CHEMBL5725323, “Heterocyclic ITK inhibitors for treating inflammation and cancer” (2017).

biological target: T1, Tyrosine-protein kinase ITK/TSK (Homo sapiens, UniProt Q08881); assay: ITK Inhibitor Binding Kinetics: This assay is based on the binding of a proprietary, Alexa Fluor 647-labeled, ATP-competitive kinase inhibitor (kinase tracer-236) to the ITK expression construct in the presence of a Europium-conjugated antibody, resulting in a FRET (fluorescence resonance energy transfer) signal. Displacement of the kinase tracer by compound results in a lower emission ratio upon excitation of the Europium chelate. Candidate compounds are designed as potential irreversible inhibitors of ITK, capable of ligating to an active site cysteine residue resulting in time dependent covalent binding. The time dependent nature of irreversible inhibition is investigated by performing the binding assay with and without a pre-incubation of compound and ITK.
T1 sequence (Q08881 whole entry): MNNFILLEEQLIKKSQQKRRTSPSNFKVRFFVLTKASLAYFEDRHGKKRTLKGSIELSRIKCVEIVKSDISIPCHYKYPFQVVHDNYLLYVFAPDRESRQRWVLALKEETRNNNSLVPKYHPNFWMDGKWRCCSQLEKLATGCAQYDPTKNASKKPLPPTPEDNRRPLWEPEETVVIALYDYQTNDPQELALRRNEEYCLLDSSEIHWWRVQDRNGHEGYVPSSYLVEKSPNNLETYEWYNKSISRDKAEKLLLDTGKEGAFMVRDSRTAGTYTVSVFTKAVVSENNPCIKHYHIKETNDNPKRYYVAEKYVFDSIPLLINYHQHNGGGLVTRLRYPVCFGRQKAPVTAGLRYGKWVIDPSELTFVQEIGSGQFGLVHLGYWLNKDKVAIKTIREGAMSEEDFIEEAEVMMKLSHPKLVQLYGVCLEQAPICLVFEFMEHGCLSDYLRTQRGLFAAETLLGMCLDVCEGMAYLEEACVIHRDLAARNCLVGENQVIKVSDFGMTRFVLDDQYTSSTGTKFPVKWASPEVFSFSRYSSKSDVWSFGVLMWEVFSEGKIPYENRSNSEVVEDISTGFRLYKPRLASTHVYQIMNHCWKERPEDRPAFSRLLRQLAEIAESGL

`COC/C=C/C(=O)Nc1cccc(-c2cnc3[nH]cc(-c4ccnc(OC)c4)c3c2)c1` and `C=CC(=O)Nc1cccc(-c2cnc3[nH]cc(-c4ccnc(C)c4)c3c2)c1` cannot be ordered by IC50: under 1000 nM for the first, under 1000 nM for the second.

`C=CC(=O)Nc1cccc(-c2cnc3[nH]cc(-c4cncc(Cl)c4)c3c2)c1` and `C=CC(=O)Nc1cccc(-c2cnc3[nH]cc(-c4cccnc4)c3c2)c1` cannot be ordered by IC50: under 1000 nM for the first, under 1000 nM for the second.

`C=CC(=O)NC1CN(c2cnc3[nH]cc(-c4ccnc(C#N)c4)c3c2)C1` and `C=CC(=O)Nc1cc(C#N)cc(-c2cnc3[nH]cc(-c4ccncc4)c3c2)c1` cannot be ordered by IC50: under 1000 nM for the first, under 1000 nM for the second.

`N#C/C(=C\c1cccc(-c2cnc3[nH]cc(-c4ccncn4)c3c2)c1)C(N)=O` and `N#C/C(=C\c1cccc(-c2cnc3[nH]cc(-c4ccc(F)nc4)c3c2)c1)C(N)=O` cannot be ordered by IC50: under 1000 nM for the first, under 1000 nM for the second.

`C=CC(=O)Nc1cccc(-c2cnc3[nH]cc(-c4cncc5[nH]ccc45)c3c2)c1` and `C=CC(=O)Nc1cccc(-c2cnc3[nH]cc(-c4ccnc5[nH]ccc45)c3c2)c1` cannot be ordered by IC50: under 1000 nM for the first, under 1000 nM for the second.

`COc1cc(/C=C(\C#N)C(N)=O)cc(-c2cnc3[nH]cc(-c4ccnc(OC)c4)c3c2)c1` and `C=C(C)C(=O)Nc1cc(-c2cnc3[nH]cc(-c4ccnc(OC)c4)c3c2)cc(-c2cnn(C)c2)n1` cannot be ordered by IC50: under 1000 nM for the first, under 1000 nM for the second.

`C=CC(=O)Nc1cncc(-c2cnc3[nH]cc(-c4cn(C)c(=O)c5[nH]ccc45)c3c2)c1` and `C=CC(=O)Nc1cccc(-c2cnc3[nH]cc(-c4ccc(=O)n(C)c4)c3c2)c1` cannot be ordered by IC50: under 1000 nM for the first, under 1000 nM for the second.

`C=CC(=O)Nc1cccc(-c2cnc3[nH]cc(-c4ccc(=O)n(CC(C)(C)O)c4)c3c2)c1` and `C=CC(=O)Nc1cccc(-c2cnc3[nH]cc(-c4ccc(F)nc4)c3c2)c1` cannot be ordered by IC50: under 1000 nM for the first, under 1000 nM for the second.

`C=CC(=O)Nc1cccc(-c2cnc3[nH]cc(-c4ccc(OCC5CC5)nc4)c3c2)c1` and `C=CC(=O)Nc1cccc(-c2cnc3[nH]cc(-c4ccc(OC)nc4)c3c2)c1` cannot be ordered by IC50: under 1000 nM for the first, under 1000 nM for the second.

`C=CC(=O)Nc1cccc(-c2cnc3[nH]cc(-c4cc(C)ncn4)c3c2)c1` and `C=CC(=O)Nc1cccc(-c2cnc3[nH]cc(-c4cc(C)cc(OC)n4)c3c2)c1` cannot be ordered by IC50: under 1000 nM for the first, under 1000 nM for the second.

`C=CC(=O)Nc1cccc(-c2cnc3[nH]cc(-c4cccc5cnccc45)c3c2)c1` and `C=CC(=O)Nc1cccc(-c2cnc3[nH]cc(-c4cccc5ccccc45)c3c2)c1` cannot be ordered by IC50: under 1000 nM for the first, under 1000 nM for the second.

`C=CC(=O)Nc1cc(-c2cnc3[nH]cc(-c4ccnc(F)c4)c3c2)cc(C(F)(F)F)c1` and `C=CC(=O)Nc1cc(-c2cnc3[nH]cc(-c4ccc(F)nc4)c3c2)cc(C(F)(F)F)c1` cannot be ordered by IC50: under 1000 nM for the first, under 1000 nM for the second.

Going from `C=CC(=O)Nc1cccc(-c2cnc3[nH]cc(-c4cc(OC)nc(C(F)(F)F)c4)c3c2)c1` to `C=CC(=O)Nc1cccc(-c2cnc3[nH]cc(-c4cc(OC)ncc4C)c3c2)c1`, the IC50 falls from over 1000 nM to under 1000 nM. The second is the more potent here.

`C=CC(=O)Nc1cc(-c2cnc3[nH]cc(-c4cccnc4)c3c2)cc(C(F)(F)F)c1` and `C=CC(=O)Nc1cccc(-c2cnc3[nH]cc(-c4ccc(NC)nc4)c3c2)c1` cannot be ordered by IC50: under 1000 nM for the first, under 1000 nM for the second.

biological target: T1, Tyrosine-protein kinase ITK/TSK; assay: ITK Target Modulation PLC-gamma Assay: Compounds were serially diluted into DMSO, and then into media to concentrations 10× that of the final assay concentration. Compounds were then added to the cells with the final assay DMSO concentration being 0.1%. Cells were incubated for 1 hour at 37° C. Following compound incubation, αCD3 Dynabeads were added at 1 bead/cell to each assay well and incubated at 37° C. for 7 minutes. Unstimulated control wells received media only. The plate was then placed on a 96-well magnetic plate for an additional 60 seconds (total assay stimulation time equals 8 minutes). The plate was then dumped and gently patted dry on a paper towel. 50 ul of complete Meso Scale Discovery (MSD) Lysis buffer was then added to each well. Samples were assayed for phospho-PLCγ1 using Meso Scale Discovery technology.

`C=CC(=O)Nc1cccc(-c2cnc3[nH]cc(-c4ccnc5ccccc45)c3c2)c1` and `C=CC(=O)Nc1cccc(-c2cnc3[nH]cc(-c4cccc5ncccc45)c3c2)c1` fall in the same range of IC50: 1000 to 5000 nM for the first, 1000 to 5000 nM for the second.

First: C=CC(=O)Nc1cccc(-c2cnc3[nH]cc(-c4cccc5[nH]ccc45)c3c2)c1
Second: C=CC(=O)Nc1cccc(-c2cnc3[nH]cc(-c4cccc5occc45)c3c2)c1
The IC50 of the first is lower: 1000 to 5000 nM for the first, over 5000 nM for the second. The first is the more potent here.

`C=CC(=O)Nc1cccc(-c2cnc3[nH]cc(-c4cccc(OC)c4)c3c2)c1` and `C=CC(=O)Nc1cccc(-c2cnc3[nH]cc(-c4cccc(C#N)c4)c3c2)c1` fall in the same range of IC50: 1000 to 5000 nM for the first, 1000 to 5000 nM for the second.

First: C=CC(=O)Nc1cc(-c2cnc3[nH]cc(-c4ccc(OC)nc4)c3c2)cc(C(F)(F)F)c1
Second: C=CC(=O)Nc1cc(-c2cnc3[nH]cc(-c4ccncc4)c3c2)cc(C(F)(F)F)c1
The IC50 of the first is higher: 1000 to 5000 nM for the first, under 1000 nM for the second.

`C=CC(=O)Nc1cccc(-c2cnc3[nH]cc(-c4ccnc(F)c4)c3c2)c1` and `C=CC(=O)Nc1cccc(-c2cnc3[nH]cc(-c4ccnc(NC)c4)c3c2)c1` cannot be ordered by IC50: under 1000 nM for the first, under 1000 nM for the second.

Compared with `C=CC(=O)Nc1cccc(-c2cnc3[nH]cc(-c4cc(C)nc(OC)c4)c3c2)c1`, `C=CC(=O)Nc1cc(OC)cc(-c2cnc3[nH]cc(-c4ccncc4)c3c2)c1` is lower in IC50: 1000 to 5000 nM for the first, under 1000 nM for the second. The second is the more potent here.

First: C=CC(=O)Nc1cccc(-c2cnc3[nH]cc(-c4ccc(=O)n(CC5CC5)c4)c3c2)c1
Second: C=CC(=O)Nc1cccc(-c2cnc3[nH]cc(-c4cn(CC5CC5)c(=O)c5[nH]ccc45)c3c2)c1
The IC50 of the first is lower: under 1000 nM for the first, 1000 to 5000 nM for the second.

First: C=CC(=O)Nc1cccc(-c2cnc3[nH]cc(-c4cc(NC)ncn4)c3c2)c1
Second: C=CC(=O)Nc1cccc(-c2cnc3[nH]cc(-c4ccnc(NC)n4)c3c2)c1
The IC50 of the first is higher: 1000 to 5000 nM for the first, under 1000 nM for the second. The second is the more potent here.

Compared with `C=CC(=O)Nc1cccc(-c2cnc3[nH]cc(-c4ccccc4C)c3c2)c1`, `C=CC(=O)Nc1cccc(-c2cnc3[nH]cc(-c4ccncn4)c3c2)c1` is lower in IC50: 1000 to 5000 nM for the first, under 1000 nM for the second. The second is the more potent here.

First: C=CC(=O)Nc1cc(-c2cnc3[nH]cc(-c4ccnc(OC)c4)c3c2)cc(C(O)(CC)CC)c1
Second: C=CC(=O)Nc1cc(-c2cnc3[nH]cc(-c4ccnc(OC)c4)c3c2)cc(-c2cnn(C)c2)c1
The IC50 of the first is higher: 1000 to 5000 nM for the first, under 1000 nM for the second. The second is the more potent here.

`Cc1cc(-c2c[nH]c3ncc(-c4cccc(/C=C(\C#N)C(N)=O)c4)cc23)ccn1` showed an IC50 of 1000 to 5000 nM.
